From ChEMBL document CHEMBL3046162, “Design, synthesis and evaluation of aminobenzophenone derivatives containing nitrogen mustard moiety as potential central nervous system antitumor agent” (Med Chem Res, 2013) come the findings set out here.

As usually defined, the IC50 is the concentration needed to halve the response being measured. A higher IC50 goes with a need for much substance.

In data set [1] the test system is IMR-32. The data set can be described thus: Cytotoxicity against human IMR32 cells after 72 hrs by MTT assay. In kind it is functional, cell-based. The settings on record: IMR-32, 72 h. (In general: Tetrazolium dyes change colour on reduction, which living cells bring about.)
Data set [2] relates to COLO 205. The data set can be described thus: Cytotoxicity against human COLO205 cells after 72 hrs by MTT assay. It is filed as functional, cell-based. The settings on record: COLO 205, 72 h.
In data set [3] the test system is A549. The data set can be described thus: Cytotoxicity against human A549 cells after 72 hrs by MTT assay. The settings on record: A549, 72 h. It is filed as functional, cell-based.
The nature of data set [4]: Alkylating activity of the compound in aqueous acetone solution assessed as half life of compound-NBP adduct formation after 30 mins by UV-Vis spectrophotometric analysis. The settings on record: buffer, 0.5 h. It is filed as physicochemical.
Data set [5] can be described thus: Cytotoxicity against human U87 cells after 72 hrs by MTT assay. The settings on record: U-87 MG. In kind it is functional, cell-based, U-87MG ATCC.

In brackets after ≈: the same amount, converted by molar mass.

For `O=C(CN(CCCl)CCCl)Nc1ccc(Cl)cc1C(=O)c1ccccc1Cl`, the 50% inhibitory concentration (IC50) came to 30.8 mg/L (≈ 68.8 µM) in data set [1], 32.6 mg/L (≈ 72.7 µM) in data set [2], 34.6 mg/L (≈ 77.3 µM) in data set [3] and 24.5 mg/L (≈ 54.7 µM) in data set [5]. In addition, in data set [4], the t1/2 is reported as 10.3 min.

For the compound `O=C(CN(CCCl)CCCl)Nc1ccc([N+](=O)[O-])cc1C(=O)c1ccc(Cl)cc1`, the 50% inhibitory concentration (IC50) in data set [1] was 28.4 mg/L (≈ 61.9 µM); in data set [2], 38.9 mg/L (≈ 84.9 µM); in data set [3] it was 36.7 mg/L (≈ 79.9 µM); in data set [5] it was 23.3 mg/L (≈ 50.7 µM). In addition, in data set [4], the t1/2 stood at 8.4 min.

Turning to `O=C(CN(CCCl)CCCl)Nc1ccc([N+](=O)[O-])cc1C(=O)c1ccccc1`, the 50% inhibitory concentration (IC50) is 33.2 mg/L (≈ 78.2 µM) in data set [1], 32.9 mg/L (≈ 77.5 µM) in data set [2], 64.8 mg/L (≈ 153 µM) in data set [3] and 29.5 mg/L (≈ 69.4 µM) in data set [5]. The t1/2 in data set [4] was determined as 11.8 min.

As to `O=C(O)CCCc1ccc(N(CCCl)CCCl)cc1` [CHLORAMBUCIL], the IC50 in data set [1] is 20.1 mg/L (≈ 66 µM); in data set [2], 26.7 mg/L (≈ 87.7 µM); in data set [3], 21.1 mg/L (≈ 69.3 µM); in data set [5], 18.8 mg/L (≈ 61.9 µM).

In the case of `O=C(CN(CCCl)CCCl)Nc1ccc(Cl)cc1C(=O)c1ccccc1`, the IC50 in data set [1] stood at 29.4 mg/L (≈ 71 µM); in data set [2], 52.3 mg/L (≈ 126 µM); in data set [3], 37.1 mg/L (≈ 89.7 µM); in data set [5], 29 mg/L (≈ 70.1 µM). For the same compound, in data set [4], the t1/2 was 13.3 min.

As for `O=C(CN(CCCl)CCCl)Nc1ccc([N+](=O)[O-])cc1C(=O)c1ccccc1Cl`, the half-maximal inhibitory concentration (IC50) in data set [1] is 31.4 mg/L (≈ 68.4 µM); in data set [2] it was 33.4 mg/L (≈ 72.8 µM); in data set [3] it was 64.8 mg/L (≈ 141 µM); in data set [5], 43.7 mg/L (≈ 95.4 µM). Further, the t1/2 in data set [4] came to 9.5 min.

On to `O=C(CN(CCCl)CCCl)Nc1ccc(Cl)cc1C(=O)c1ccc(Cl)cc1`, for which the IC50 in data set [1] came to 31.1 mg/L (≈ 69.5 µM); in data set [2], 28.7 mg/L (≈ 64 µM); in data set [3] it was 37.3 mg/L (≈ 83.3 µM); in data set [5] it was 27.1 mg/L (≈ 60.5 µM). In addition, in data set [4], the t1/2 was 8.9 min.

As to `CC(=O)O[C@@]12CO[C@@H]1C[C@H](O)[C@@]1(C)C(=O)[C@H](O)C3=C(C)[C@@H](OC(=O)[C@H](O)[C@@H](NC(=O)OC(C)(C)C)c4ccccc4)C[C@@](O)([C@@H](OC(=O)c4ccccc4)[C@H]21)C3(C)C.O.O.O` [DOCETAXEL], the IC50 came to 23.7 mg/L in data set [1], 30.7 mg/L in data set [2], 27.3 mg/L in data set [3] and 20.7 mg/L in data set [5].
